Experimental data reported in patent US20090197859A1 (Pfizer Inc., priority 2008, published 2009).
Structures can show the parent of a compound that is named as a salt.

Experiments:
[1] = target: T1, cloned human 5-HT6 receptor (Homo sapiens, UniProt P50406); assay: 5-HT6 Receptor Binding Assay ([3H]-LSD radioligand, SPA); conditions: read-out: 5HT6 % inh @ 1 uM
T1 construct: host or cells: HeLa cells, G-418 selection, membrane preparation
Experimental: 5-HT6 Receptor Binding Assay
Hela cells containing the cloned human 5-HT6 receptor were acquired from Dr. David R. Sibley's laboratory in National Institute of Health (see Sibley, D. R., J. Neurochemistry, 66, 47-56, 1996). Cells were grown in high glucose Dulbecco's modified Eagle's medium, supplemented with L-glutamine, 0.5% sodium pyruvate, 0.3% penicillin-streptomycin, 0.025% G-418 and 5% Gibco fetal bovine serum and then were harvested, when confluent, in cold phosphate buffered saline.
Harvested intact cells were washed once in cold phosphate-buffered saline. The cells were pelleted and resuspended in 100 ml of cold 50 mM Tris, 5 mM EDTA and 5 mM EGTA, pH 7.4. Homogenization was with a Vir Tishear generator, 4 cycles for 30 seconds each at setting 50. The homogenized cells were centrifuged at […] for 10 minutes and the supernatant was removed. The pellet was resuspended in 100 ml of the above buffer and rehomogenized for 2 cycles. The rehomogenized cells were then centrifuged at […] for 10 minutes and the supernatant was removed. The combined supernatant (200 ml) was centrifuged at 23,000 RPM (80,000×g) for 1 hour in a Beckman Rotor (42.1 Ti). The membrane pellet was resuspended in […] of assay buffer containing HEPES 20 mM, MgCl2 10 mM, NaCl 150 mM, EDTA 1 mM, pH 7.4 and stored frozen in aliqouts at −70° C.
The radioligand binding assay used [^3H]-lysergic acid diethylamide (LSD). The assay was carried out in Wallac 96-well sample plates by the addition of 11 μl of the test sample at the appropriate dilution (the assay employed 11 serial concentrations of samples run in duplicate), 11 μl of radioligand, and 178 μl of a washed mixture of WGA-coated SPA beads and membranes in binding buffer. The plates were shaken for about 5 minutes and then incubated at room temperature for 1 hour. The plates were then loaded into counting cassettes and counted in a Wallac MicroBeta Trilux scintillation counter.
Binding Constant Determination may be obtained by performing serial dilutions, e.g., eleven dilutions, of test compounds into assay plates using the PE/Cetus Pro/Pette pipetter. These dilutions are followed by radioligand and the bead-membrane mixture prepared as described above. After obtaining the specifically bound cpm, the data are fit to a one-site binding model using GraphPad Prism ver. 2.0. Estimated IC50 values are converted to Ki values using the Cheng-Prusoff equation (Cheng, Y. C. et al., Biochem. Pharmacol., 22, 3099-108, 1973).

T1 sequence (P50406 whole entry): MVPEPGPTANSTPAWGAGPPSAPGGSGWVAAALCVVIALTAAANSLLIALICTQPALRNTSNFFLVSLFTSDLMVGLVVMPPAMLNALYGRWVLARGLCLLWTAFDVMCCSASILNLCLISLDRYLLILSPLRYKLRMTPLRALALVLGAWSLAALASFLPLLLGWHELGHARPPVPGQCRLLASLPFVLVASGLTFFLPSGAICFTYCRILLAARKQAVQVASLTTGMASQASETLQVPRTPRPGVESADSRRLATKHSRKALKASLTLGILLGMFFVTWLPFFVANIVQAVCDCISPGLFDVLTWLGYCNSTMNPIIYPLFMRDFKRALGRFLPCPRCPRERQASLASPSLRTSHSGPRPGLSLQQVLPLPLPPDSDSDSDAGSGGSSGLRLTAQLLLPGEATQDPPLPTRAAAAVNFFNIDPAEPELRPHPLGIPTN

| melting point | inhibition at 1 µM [1] | Structure (SMILES) |
| --- | --- | --- |
| 106 to 108 °C |  | CN1CCCN(c2cccc(C(=O)N3CC[C@@H](Oc4ccccc4F)C3)n2)CC1 (as salt: hydrochloride) [Example 46, [(R)-3-(2-Fluoro-phenoxy)-pyrrolidin-1-yl]-[6-(4-methyl-[1,4]diazepan-1-yl)-pyridin-2-yl]-methanone] |
| 116 to 118 °C | 99.4% | Cc1cccc(O[C@H]2CCN(C(=O)c3cccc(N4CCCNCC4)n3)C2)c1 [Example 42, (6-[1,4]Diazepan-1-yl-pyridin-2-yl)-((S)-3-m-tolyloxy-pyrrolidin-1-yl)-methanone] |
| 119 to 121 °C | 85.8% | CN1CCC(c2cccc(C(=O)N3CCC(Oc4ccccc4Cl)CC3)n2)CC1 [Example 96, [4-(2-Chloro-phenoxy)-piperidin-1-yl]-(1′-methyl-1′,2′,3′,4′,5′,6′-hexahydro-[2,4′]bipyridinyl-6-yl)-methanone] |
| 126 to 128 °C | 99.4% | Cc1cccc([C@@H](C)N(C)C(=O)c2cccc(N3CCN(C)CC3)n2)c1 [Example 93, 6-(4-Methyl-piperazin-1-yl)-pyridine-2-carboxylic acid methyl-((R)-1-m-tolyl-ethyl)-amide] |
| 73 to 75 °C | 99% | Cc1cccc(O[C@H]2CCCN(C(=O)c3cccc(N4CCN(C)CC4)n3)C2)c1 [Example 76, [6-(4-Methyl-piperazin-1-yl)-pyridin-2-yl]-((S)-3-m-tolyloxy-piperidin-1-yl)-methanone] |
| 158 to 159 °C | 100% | O=C(c1cccc(N2CCCNCC2)n1)N1CCC[C@H](Oc2ccccc2F)C1 [Example 40, (6-[1,4]Diazepan-1-yl-pyridin-2-yl)-[(S)-3-(2-fluoro-phenoxy)-piperidin-1-yl]-methanone] |
| 118 to 120 °C |  | Cc1ccccc1OC1CCN(C(=O)c2cccc(C3CCN(C)CC3)n2)CC1 (as salt: hydrochloride) [Example 95, (1′-Methyl-1′,2′,3′,4′,5′,6′-hexahydro-[2,4′]bipyridinyl-6-yl)-(4-o-tolyloxy-piperidin-1-yl)-methanone] |
| 102 to 104 °C | 89.9% | Cc1ccccc1O[C@@H]1CCN(C(=O)c2cccc(N3CCCNCC3)n2)C1 [Example 49, (6-[1,4]Diazepan-1-yl-pyridin-2-yl)-((R)-3-o-tolyloxy-pyrrolidin-1-yl)-methanone] |
| 72 to 74 °C | 75.4% | O=C(c1cccc(N2CCCNCC2)n1)N1CC[C@H](Oc2ccc(F)cc2)C1 [Example 25, (6-[1,4]Diazepan-1-yl-pyridin-2-yl)-[(S)-3-(4-fluoro-phenoxy)-pyrrolidin-1-yl]-methanone] |
| 141.6 to 142.9 °C | 79.6% | CN1CC(c2cccc(C(=O)N3CCC(Oc4ccc(F)cc4)CC3)n2)C1 [Example 97, [4-(4-Fluoro-phenoxy)-piperidin-1-yl]-[6-(1-methyl-azetidin-3-yl)-pyridin-2-yl]-methanone] |
| 136.7 to 137.2 °C | 77.4% | Cc1ccccc1[C@@H]1CCCCN1C(=O)c1cccc(N2CCN(C)CC2)n1 [Example 63, [6-(4-Methyl-piperazin-1-yl)-pyridin-2-yl]-((S)-2-o-tolyl-piperidin-1-yl)-methanone] |
| 138.5 to 139 °C | 95.3% | Cc1cccc(C2CCCCN2C(=O)c2cccc(N3CCCNCC3)n2)c1 (centres unmarked) [Example 34, (6-[1,4]Diazepan-1-yl-pyridin-2-yl)-(2-m-tolyl-piperidin-1-yl)-methanone] |
| 143.3 to 144 °C | 82.1% | Cc1ccc([C@H]2CCCCN2C(=O)c2cccc(N3CCN(C)CC3)n2)cc1 [Example 66, [6-(4-Methyl-piperazin-1-yl)-pyridin-2-yl]-((R)-2-p-tolyl-piperidin-1-yl)-methanone] |
| 147.9 to 148.5 °C | 71.6% | Cc1ccc(C2CCCCN2C(=O)c2cccc(N3CCCNCC3)n2)cc1 (centres unmarked) [Example 37, (6-[1,4]Diazepan-1-yl-pyridin-2-yl)-(2-p-tolyl-piperidin-1-yl)-methanone] |
| 148.6 to 149.5 °C | 98.7% | CN1CCN(c2cccc(C(=O)N3CCC(c4ccc(F)cc4F)CC3)n2)CC1 [Example 102, [4-(2,4-Difluoro-phenyl)-piperidin-1-yl]-[6-(4-methyl-piperazin-1-yl)-pyridin-2-yl]-methanone] |
| 203 to 204.5 °C |  | Cc1ccccc1C1CCN(S(=O)(=O)c2cccc(N3CCN(C)CC3)n2)CC1 (as salt: hydrochloride) [Example 78, 1-Methyl-4-[6-(4-o-tolyl-piperidine-1-sulfonyl)-pyridin-2-yl]-piperazine] |
| 154.1 to 155.5 °C | 94.6% | Cc1cccc(C2CCCCN2C(=O)c2cccc(N3CCNCC3)n2)c1 (centres unmarked) [Example 28, (6-Piperazin-1-yl-pyridin-2-yl)-(2-m-tolyl-piperidin-1-yl)-methanone] |
| 240.5 to 242 °C | 102% | CN1CCN(c2cccc(S(=O)(=O)N3CCC(c4ccccc4F)CC3)n2)CC1 [Example 88, 1-{6-[4-(2-Fluoro-phenyl)-piperidine-1-sulfonyl]-pyridin-2-yl}-4-methyl-piperazine] |
| 163 to 164.7 °C |  | Cc1cccc(F)c1C1CCN(C(=O)c2cccc(N3CCN(C)CC3)n2)CC1 (as salt: hydrochloride) [Example 23, [4-(2-Fluoro-6-methyl-phenyl)-piperidin-1-yl]-[6-(4-methyl-piperazin-1-yl)-pyridin-2-yl]-methanone] |
| 176.7 to 177.2 °C |  | CN1CCN(c2cccc(C(=O)N3CC=C(c4ccccc4F)CC3)n2)CC1 (as salt: hydrochloride) [Example 21, [4-(2-Fluoro-phenyl)-3,6-dihydro-2H-pyridin-1-yl]-[6-(4-methyl-piperazin-1-yl)-pyridin-2-yl]-methanone] |
| 94 to 96 °C |  | Cc1ccccc1O[C@@H]1CCN(C(=O)c2cccc(N3CCCN(C)CC3)n2)C1 (as salt: hydrochloride) [Example 53, [6-(4-Methyl-[1,4]diazepan-1-yl)-pyridin-2-yl]-((R)-3-o-tolyloxy-pyrrolidin-1-yl)-methanone] |
| 75 to 77 °C |  | O=C(c1cccc(N2CCCNCC2)n1)N1CC[C@H](Oc2ccccc2F)C1 (as salt: hydrochloride) [Example 30, (6-[1,4]Diazepan-1-yl-pyridin-2-yl)-[(S)-3-(2-fluoro-phenoxy)-pyrrolidin-1-yl]-methanone] |
| 105.6 to 106 °C |  | Cc1ccccc1C1CCCCN1C(=O)c1cccc(N2CCNCC2)n1 (centres unmarked) (as salt: hydrochloride) [Example 26, (6-Piperazin-1-yl-pyridin-2-yl)-(2-o-tolyl-piperidin-1-yl)-methanone] |
| 211 to 212.2 °C |  | O=S(=O)(c1cccc(N2CCNCC2)n1)N1CCC(c2ccccc2F)CC1 (as salt: hydrochloride) [Example 51, 1-{6-[4-(2-Fluoro-phenyl)-piperidine-1-sulfonyl]-pyridin-2-yl}-piperazine] |
| 85 to 86 °C |  | CN1CCC(c2cccc(C(=O)N3CCC(Oc4cccc(F)c4)CC3)n2)C1 (centres unmarked) (as salt: hydrochloride) [Example 16, [4-(3-Fluoro-phenoxy)-piperidin-1-yl]-[6-(1-methyl-pyrrolidin-3-yl)-pyridin-2-yl]-methanone] |
|  | 95.4% | CN1CCC(c2cccc(C(=O)N3CCC(c4ccc(F)cc4F)CC3)n2)C1 (centres unmarked) [Example 108, [4-(2,4-Difluoro-phenyl)-piperidin-1-yl]-[6-(1-methyl-pyrrolidin-3-yl)-pyridin-2-yl]-methanone] |
|  | 64.5% | Cc1ccccc1C1CCN(C(=O)c2cccc(N3CCN(C4CC4)CC3)n2)CC1 [Example 114, [6-(4-Cyclopropyl-piperazin-1-yl)-pyridin-2-yl]-(4-o-tolyl-piperidin-1-yl)-methanone] |
|  | 96.8% | O=C(c1cccc(N2CCNCC2)n1)N1CCC(c2ccccc2F)CC1 [Example 22, [4-(2-Fluoro-phenyl)-piperidin-1-yl]-(6-piperazin-1-yl-pyridin-2-yl)-methanone] |

| Structure (SMILES) | melting point | inhibition at 1 µM [1] |
| --- | --- | --- |
| CN1CC=C(c2cccc(C(=O)N3CCC(Oc4ccccc4C(F)(F)F)CC3)n2)CC1 [Example 101, (1′-Methyl-1′,2′,3′,6′-tetrahydro-[2,4′]bipyridinyl-6-yl)-[4-(2-trifluoromethyl-phenoxy)-piperidin-1-yl]-methanone] |  | 96.9% |
